Assays:
[1] = target: T1, wild-type human cardiac sodium channel, hNav1.5 (Homo sapiens, UniProt Q14524); experiment: Late INa screening assay (PatchXpress whole cell patch clamp); assay type: cell-based; settings: HEK293 hNav1.5; for inhibition at 10 µM: compound at 10 uM, late INa generated with Tefluthrin or ATX II, read-out: Late INa 10 uM (percent block of late INa)
T1 construct: host or cells: HEK293
Description: The late sodium current (Late INa) and peak sodium current (Peak INa) assays were performed on an automated electrophysiology platform, PatchXpress 7000A (MDS Analytical Technologies, Sunnyvale, Calif.), using the whole cell patch clamp technique to measure currents through the cell membrane of up to 16 cells at a time. The assay used an HEK293 (human embryonic kidney) cell line heterologously expressing the wild-type human cardiac sodium channel, hNav1.5, purchased from Millipore (Billerica, Mass.). No beta subunits were coexpressed with the Na channel alpha subunit. Cells were maintained with standard tissue culture procedures, and stable channel expression was maintained with 400 μg/ml Geneticin in the culture medium. Cells isolated for use on PatchXpress were incubated for 5 minutes in Versene 1× and then for 2 minutes in 0.0125% Trypsin-EDTA (both at 37° C.) to ensure that 80-90% of the cells are single and not part of a cell cluster. Experiments were carried out at 24-27° C.
For both the Late INa and Peak INa assays, series resistance compensation was set to 50% and whole-cell compensation was performed automatically. Currents were low-pass filtered at 10 kHz and digitized at 31.25 kHz. Currents through open sodium channels were automatically recorded and stored in the DataXpress2 database (MDS Analytical Technologies, Sunnyvale, Calif.). Analysis was performed using DataXpress2 analysis software and data are compiled in Excel.
Compound stocks were routinely made in glass vials to 10 mM in dimethyl sulfoxide (DMSO). In some cases, when compounds were not soluble in DMSO, they are made in 100% ethanol. Stocks were sonicated as necessary. The extracellular solution for screening Late INa was composed of: 140 mM NaCl, 4 mM KCl, 1.8 mM CaCl2, 0.75 mM MgCl2, and 5 mM HEPES with pH adjusted to 7.4 using NaOH. The extracellular solution for screening Peak INa was composed of: 20 mM NaCl, 120 mM N-methyl-D glucamine, 4 mM KCl, 1.8 mM CaCl2, 0.75 mM MgCl2, and 5 mM HEPES with pH adjusted to 7.4 using HCl. The intracellular solution used to perfuse the inside of the cells for both the Late INa and Peak INa assays contained: 120 mM CsF, 20 mM CsCl, 5 mM EGTA, 5 mM HEPES and pH adjusted to 7.4 with CsOH. Compounds were diluted in extracellular solution to […] in glass vials and then transferred to glass well plates before robotic addition to the cells. The 0Na extracellular solution used at the end of each experiment for the Late INa and Peak INa assays to measure baseline current contained: 140 mM N-methyl-D-glucamine; 4 mM KCl; 1.8 mM CaCl2; 0.75 mM MgCl2; 5 mM HEPES and pH was adjusted to 7.4 with HCl.
For the Late INa assay, sodium channels were activated every 10 seconds (0.1 Hz) by depolarizing the cell membrane to −20 mV for 250 milliseconds (ms) from a holding potential of −120 mV. In response to a −20 mV voltage step, typical Nav1.5 sodium currents activated rapidly to a peak negative current and then inactivated nearly completely within 3-4 ms.
All compounds were tested to determine their activity in blocking the late sodium current. Late INa current was generated by adding 10 μM Tefluthrin (pyrethroid) to the extracellular solution while recording Na currents. For some experiments, 50 nM ATX II (sea anemone toxin), another late INa activator, was used to generate the late component. Both activators generated late components that are large, and thus block of the late component by compounds could be measured easily. For the purposes of the screening, late INa is defined as the mean current between 225 ms and 250 ms after stepping to −20 mV to activate Na channels. After establishing the whole cell recording configuration, late INa activators were added to each well 4 times over a 16-17 minute period so that the late component of the Na current reached a stable value. Compounds were then added (typically at 10 μM), in the presence of late INa activator, with 3 additions over the course of 7 or 8 minutes. […]

hERG potassium channel = target: T2, hERG potassium channel (Homo sapiens, UniProt Q12809); experiment: hERG screening assay (PatchXpress patch clamp, CHO cells); assay type: cell-based; settings: CHO cells expressing hERG; for HERG 1 uM (block of hERG current): compound at 1 uM; for HERG 10 uM (block of hERG current): compound at 10 uM
T2 construct: expressed in transfected cells; host or cells: CHO (Chinese Hamster Ovary)
T2 sequence (Q12809 whole entry): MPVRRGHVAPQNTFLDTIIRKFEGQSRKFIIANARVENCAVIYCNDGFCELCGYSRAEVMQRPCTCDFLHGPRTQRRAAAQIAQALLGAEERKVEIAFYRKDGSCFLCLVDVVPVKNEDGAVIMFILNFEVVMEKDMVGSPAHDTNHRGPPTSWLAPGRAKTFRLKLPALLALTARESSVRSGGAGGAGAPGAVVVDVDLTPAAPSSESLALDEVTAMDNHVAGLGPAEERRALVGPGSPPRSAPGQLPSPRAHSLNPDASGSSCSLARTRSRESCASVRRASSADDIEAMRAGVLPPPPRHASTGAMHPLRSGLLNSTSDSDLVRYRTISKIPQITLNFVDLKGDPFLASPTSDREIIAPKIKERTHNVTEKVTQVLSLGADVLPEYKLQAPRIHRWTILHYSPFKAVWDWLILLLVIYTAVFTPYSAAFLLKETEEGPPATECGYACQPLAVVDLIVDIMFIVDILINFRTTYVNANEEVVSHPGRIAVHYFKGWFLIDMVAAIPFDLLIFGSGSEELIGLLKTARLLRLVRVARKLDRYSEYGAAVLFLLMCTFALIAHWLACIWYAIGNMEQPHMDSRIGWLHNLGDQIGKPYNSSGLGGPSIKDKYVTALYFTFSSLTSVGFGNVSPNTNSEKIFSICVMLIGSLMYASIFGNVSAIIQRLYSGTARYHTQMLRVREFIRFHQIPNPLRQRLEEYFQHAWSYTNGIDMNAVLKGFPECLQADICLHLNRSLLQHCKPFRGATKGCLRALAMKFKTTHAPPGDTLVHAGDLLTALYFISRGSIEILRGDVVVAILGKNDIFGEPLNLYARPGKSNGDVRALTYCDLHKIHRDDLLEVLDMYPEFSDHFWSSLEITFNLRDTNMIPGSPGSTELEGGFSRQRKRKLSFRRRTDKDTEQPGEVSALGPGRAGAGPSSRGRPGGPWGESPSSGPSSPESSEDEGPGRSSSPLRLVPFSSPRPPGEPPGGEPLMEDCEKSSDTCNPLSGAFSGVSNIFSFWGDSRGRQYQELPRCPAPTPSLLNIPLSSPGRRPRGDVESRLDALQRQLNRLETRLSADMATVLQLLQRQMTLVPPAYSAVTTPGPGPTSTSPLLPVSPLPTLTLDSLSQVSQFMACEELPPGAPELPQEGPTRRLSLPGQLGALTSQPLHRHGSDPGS
Description: Compounds were screened to test their activity in blocking the hERG potassium channel. The hERG channel is heterologously expressed in a CHO (Chinese Hamster Ovary) cell line. Cells were maintained with standard tissue culture procedures and stable channel expression was maintained with 500 μg/ml G418 in the culture medium. Cells were harvested for testing on the PatchXpress automated patch clamp with Accumax (Innovative Cell Technologies, San Diego, Calif.) to isolate single cells.
The following solutions were used for electrophysiological recordings. The external solution contained: 2 mM CaCl2; 2 mM MgCl2; 4 mM KCl; 150 mM NaCl; 10 mM Glucose; 10 mM HEPES (pH 7.4 with 1M NaOH, osmolarity). The internal solution contained: 140 mM KCl, 10 mM MgCl2, 6 mM EGTA, 5 mM HEPES, 5 mM ATP (pH adjusted to 7.25 with KOH).
hERG channels were activated when the voltage was stepped to +20 mV from the −80 mV holding potential. During a 5 second step at +20 mV, the channels activated and then largely inactivated, so the currents were relatively small. Upon returning to −50 mV from +20 mV, hERG currents transiently became much larger as inactivation was rapidly removed and then the channel closed. The first step to −50 mV for 300 ms was used as a baseline for measuring the peak amplitude during the step to −50 mV after channel activation. The peak current at −50 mV was measured both under control conditions and after addition of compound.
All compounds were prepared as 10 mM DMSO stocks in glass vials. Stock solutions were mixed by vigorous vortexing and sonication for about 2 minutes at room temperature. For testing, compounds were diluted in glass vials using an intermediate dilution step in pure DMSO and then further diluted to working concentrations in external solution. Dilutions were prepared no longer than 20 minutes before use.
After achieving the whole-cell configuration, cells were monitored for 90 seconds to assess stability and washed with external solution for 66 seconds. The voltage protocol described above was then applied to the cells every 12 seconds and throughout the whole procedure. Only cells with stable recording parameters and meeting specified health criteria were allowed to enter the compound addition procedure.
External solution containing 0.1% DMSO (vehicle) was applied to the cells first to establish the control peak current amplitude. After allowing the current to stabilize for […], 1 μM and then 10 μM test compounds were applied. Each compound concentration was added 4 times and cells were kept in test solution until the effect of the compound reached steady state or for a maximum of 12 minutes. After addition of test compound, a positive control (1 μM Cisapride) was added, and must block >95% of the current for the experiment to be considered valid. Washout in the external solution compartment was performed until the recovery of the current reached steady state. Data was analyzed using DataXpress, Clampfit (Molecular Devices, Inc., Sunnyvale) and Origin 7 (Originlab Corp.)

T1 sequence (Q14524 whole entry): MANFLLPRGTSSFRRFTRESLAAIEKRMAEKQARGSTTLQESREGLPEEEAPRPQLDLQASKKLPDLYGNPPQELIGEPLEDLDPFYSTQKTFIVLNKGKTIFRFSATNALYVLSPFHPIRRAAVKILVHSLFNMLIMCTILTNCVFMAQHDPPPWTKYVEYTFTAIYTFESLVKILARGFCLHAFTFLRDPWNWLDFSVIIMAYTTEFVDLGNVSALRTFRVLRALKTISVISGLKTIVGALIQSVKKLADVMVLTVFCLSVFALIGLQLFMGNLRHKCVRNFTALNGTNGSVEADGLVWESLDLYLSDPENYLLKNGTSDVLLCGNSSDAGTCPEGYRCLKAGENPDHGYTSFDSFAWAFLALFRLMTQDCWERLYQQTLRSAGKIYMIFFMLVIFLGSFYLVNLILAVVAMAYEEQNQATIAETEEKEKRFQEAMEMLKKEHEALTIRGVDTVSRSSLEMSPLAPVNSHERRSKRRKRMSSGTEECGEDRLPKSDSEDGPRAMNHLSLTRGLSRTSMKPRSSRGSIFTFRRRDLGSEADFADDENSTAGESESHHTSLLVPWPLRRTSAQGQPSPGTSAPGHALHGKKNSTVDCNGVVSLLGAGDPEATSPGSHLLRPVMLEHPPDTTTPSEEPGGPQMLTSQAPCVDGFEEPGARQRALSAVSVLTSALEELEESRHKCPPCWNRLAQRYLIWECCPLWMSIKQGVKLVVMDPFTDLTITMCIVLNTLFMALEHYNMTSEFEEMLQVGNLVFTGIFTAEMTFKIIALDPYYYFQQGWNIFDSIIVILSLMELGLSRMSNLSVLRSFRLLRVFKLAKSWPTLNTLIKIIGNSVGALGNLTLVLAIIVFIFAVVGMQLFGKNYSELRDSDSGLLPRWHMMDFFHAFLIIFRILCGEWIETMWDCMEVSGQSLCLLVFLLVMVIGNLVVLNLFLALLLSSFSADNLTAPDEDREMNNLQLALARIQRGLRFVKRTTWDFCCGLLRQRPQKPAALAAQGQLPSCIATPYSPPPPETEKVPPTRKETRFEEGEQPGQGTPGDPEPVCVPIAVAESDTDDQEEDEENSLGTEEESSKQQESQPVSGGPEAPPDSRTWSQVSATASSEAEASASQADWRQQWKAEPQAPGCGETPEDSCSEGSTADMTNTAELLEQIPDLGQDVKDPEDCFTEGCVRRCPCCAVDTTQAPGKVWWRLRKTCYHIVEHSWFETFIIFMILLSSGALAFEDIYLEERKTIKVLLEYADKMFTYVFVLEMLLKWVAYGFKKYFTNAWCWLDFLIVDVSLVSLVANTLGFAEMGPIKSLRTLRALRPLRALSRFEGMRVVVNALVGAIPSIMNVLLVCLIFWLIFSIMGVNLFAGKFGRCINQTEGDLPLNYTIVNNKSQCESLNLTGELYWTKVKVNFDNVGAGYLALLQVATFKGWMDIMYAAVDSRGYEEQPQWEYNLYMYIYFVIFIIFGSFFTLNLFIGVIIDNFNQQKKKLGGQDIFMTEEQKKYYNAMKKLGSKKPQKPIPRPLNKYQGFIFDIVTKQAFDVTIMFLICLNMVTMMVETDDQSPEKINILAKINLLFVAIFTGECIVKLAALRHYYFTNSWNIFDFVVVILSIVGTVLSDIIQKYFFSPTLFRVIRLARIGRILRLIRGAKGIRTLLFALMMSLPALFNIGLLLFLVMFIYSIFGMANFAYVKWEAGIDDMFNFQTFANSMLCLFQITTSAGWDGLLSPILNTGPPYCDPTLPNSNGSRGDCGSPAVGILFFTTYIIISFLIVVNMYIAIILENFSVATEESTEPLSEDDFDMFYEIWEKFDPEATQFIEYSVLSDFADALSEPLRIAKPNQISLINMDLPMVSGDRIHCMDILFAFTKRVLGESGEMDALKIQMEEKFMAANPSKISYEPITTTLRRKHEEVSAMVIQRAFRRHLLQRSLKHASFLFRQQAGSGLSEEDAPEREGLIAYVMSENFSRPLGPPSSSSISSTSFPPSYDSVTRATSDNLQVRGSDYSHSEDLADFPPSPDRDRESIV

Structure (SMILES)	Late INa 1 uM (percent block of late INa) ([1]; compound at 1 uM) [%]	inhibition at 10 µM [1] [%]	HERG 1 uM (block of hERG current) (hERG potassium channel) [%]	HERG 10 uM (block of hERG current) (hERG potassium channel) [%]
Cn1c(=O)c(C(C)(C)C)nc2ccc(-c3cccc(OC(F)(F)F)c3)cc21 [3-tert-butyl-1-methyl-7-[3-(trifluoromethoxy)phenyl] quinoxalin-2(1H)-one]	51.3	77.5	10.0	10.0
CCOC(=O)c1nc2ccc(-c3ccc(OC(F)(F)F)cc3)cc2n(C)c1=O [ethyl 4-methyl-3-oxo-6-[4-(trifluoromethoxy)phenyl]-3,4-dihydroquinoxaline-2-carboxylate]		49.3	34.0	79.5

Reference: patent publication US8912190B2, “Substituted heterocyclic compounds” (Gilead Sciences, Inc., priority 2008, dated 2014)
